Earlier results, collected in US20050090549A1, “Intrathecal gabapentin for treatment of pain” (Medtronic, Inc., priority 2003, published 2005).

Settings: in water and in both basic and acidic aqueous solutions

NCC1(CC(=O)O)CCCCC1 [1-(aminomethyl)cyclohexane acetic acid]
solubility: freely soluble
